# According to patent publication US20100152215A1, “METHODS OF IDENTIFYING ACTIVATORS OF LYN KINASE” (MELIOR PHARMACEUTICALS I, INC., priority 2007, published 2010):
# How the values were obtained:
# IKKb = IKKb (Homo sapiens, UniProt O14920); test: kinase screen for inhibition or activation; assay type: biochemical; settings: 10 μM
# Experimental: (§1) A kinase screen was conducted in which Compound 102 (10 μM) was screened against 49 kinases for inhibition or activation. Any kinase that was activated or inhibited by at least 20% was considered to be a significant effect. Of the 49 kinases screened, Lyn kinase was activated by 51%. In a repeat experiment, Lyn kinase activity was increased by 57%.
# Akt2 = Akt2 (Homo sapiens, UniProt P31751); test: kinase screen for inhibition or activation; assay type: biochemical; settings: 10 μM
# Chain of Akt2 (P31751 whole entry, species assumed): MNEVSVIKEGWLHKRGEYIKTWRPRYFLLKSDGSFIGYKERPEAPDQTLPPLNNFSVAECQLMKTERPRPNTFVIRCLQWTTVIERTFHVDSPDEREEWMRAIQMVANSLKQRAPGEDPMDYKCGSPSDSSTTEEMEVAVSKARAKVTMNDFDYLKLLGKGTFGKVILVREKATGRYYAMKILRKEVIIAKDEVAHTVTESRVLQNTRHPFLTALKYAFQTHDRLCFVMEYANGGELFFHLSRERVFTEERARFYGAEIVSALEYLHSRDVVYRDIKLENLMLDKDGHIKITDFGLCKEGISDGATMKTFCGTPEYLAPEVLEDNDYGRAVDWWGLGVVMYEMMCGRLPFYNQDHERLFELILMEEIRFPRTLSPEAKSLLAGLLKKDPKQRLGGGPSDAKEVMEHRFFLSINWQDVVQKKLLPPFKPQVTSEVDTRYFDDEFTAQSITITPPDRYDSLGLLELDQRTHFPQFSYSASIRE
# Experimental: as §1
# p70S6K = test: kinase screen for inhibition or activation; assay type: biochemical; settings: 10 μM; inhibition
# Experimental: as §1
# PKCb2 = PKCb2 (Homo sapiens, UniProt P05771); test: kinase screen for inhibition or activation; assay type: biochemical; settings: 10 μM
# Experimental: as §1
# Pim2 = Pim2 (Homo sapiens, UniProt Q9P1W9); test: kinase screen for inhibition or activation; assay type: biochemical; settings: 10 μM
# Experimental: as §1
# Src = Src (Homo sapiens, UniProt P12931); test: kinase screen for inhibition or activation; assay type: biochemical; settings: 10 μM
# Experimental: as §1
# IGF1R = IGF1R (Homo sapiens, UniProt P08069); test: kinase screen for inhibition or activation; assay type: biochemical
# Chain of IGF1R (P08069 31-1367, species assumed): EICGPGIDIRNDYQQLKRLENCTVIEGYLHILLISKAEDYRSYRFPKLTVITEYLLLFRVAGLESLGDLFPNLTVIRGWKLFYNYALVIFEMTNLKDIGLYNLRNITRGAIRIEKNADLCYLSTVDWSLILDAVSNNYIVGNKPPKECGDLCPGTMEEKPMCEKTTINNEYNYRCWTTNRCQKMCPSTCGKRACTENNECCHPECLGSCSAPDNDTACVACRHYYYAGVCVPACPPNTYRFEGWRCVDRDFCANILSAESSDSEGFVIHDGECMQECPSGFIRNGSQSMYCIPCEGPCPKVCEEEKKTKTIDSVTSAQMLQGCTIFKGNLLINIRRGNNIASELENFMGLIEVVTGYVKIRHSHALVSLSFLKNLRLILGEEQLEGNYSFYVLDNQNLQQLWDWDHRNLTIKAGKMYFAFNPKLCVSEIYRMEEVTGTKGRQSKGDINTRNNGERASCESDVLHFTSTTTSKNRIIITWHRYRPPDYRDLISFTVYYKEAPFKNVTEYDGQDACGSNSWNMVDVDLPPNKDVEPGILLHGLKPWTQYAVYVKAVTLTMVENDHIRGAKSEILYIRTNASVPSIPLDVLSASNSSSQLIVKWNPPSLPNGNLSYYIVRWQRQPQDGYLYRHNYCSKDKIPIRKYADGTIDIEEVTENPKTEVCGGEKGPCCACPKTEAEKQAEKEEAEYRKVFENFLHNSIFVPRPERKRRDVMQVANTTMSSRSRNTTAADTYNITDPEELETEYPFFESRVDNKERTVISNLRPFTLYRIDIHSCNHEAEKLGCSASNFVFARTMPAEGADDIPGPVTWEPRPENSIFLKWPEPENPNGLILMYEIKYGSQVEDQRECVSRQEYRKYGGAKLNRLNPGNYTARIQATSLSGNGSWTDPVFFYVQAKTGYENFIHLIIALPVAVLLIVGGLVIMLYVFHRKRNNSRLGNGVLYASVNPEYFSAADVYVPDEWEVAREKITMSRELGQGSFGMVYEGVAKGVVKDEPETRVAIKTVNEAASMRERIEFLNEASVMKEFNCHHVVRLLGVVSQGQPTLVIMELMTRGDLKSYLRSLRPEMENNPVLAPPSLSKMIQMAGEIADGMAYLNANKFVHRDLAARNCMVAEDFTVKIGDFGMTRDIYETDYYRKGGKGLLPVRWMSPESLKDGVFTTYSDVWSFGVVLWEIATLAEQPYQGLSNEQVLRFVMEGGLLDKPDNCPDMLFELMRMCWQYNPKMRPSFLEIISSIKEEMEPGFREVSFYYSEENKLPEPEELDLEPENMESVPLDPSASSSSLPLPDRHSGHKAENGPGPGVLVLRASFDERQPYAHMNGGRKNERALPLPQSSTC
# Experimental: as §1
# CK1d = CK1d (Homo sapiens, UniProt P48730); test: kinase screen for inhibition or activation; assay type: biochemical; settings: 10 μM
# Experimental: as §1
# CHK1 = CHK1 (Homo sapiens, UniProt O14757); test: kinase screen for inhibition or activation; assay type: biochemical; settings: 10 μM
# Chain of CHK1 (O14757 whole entry, species assumed): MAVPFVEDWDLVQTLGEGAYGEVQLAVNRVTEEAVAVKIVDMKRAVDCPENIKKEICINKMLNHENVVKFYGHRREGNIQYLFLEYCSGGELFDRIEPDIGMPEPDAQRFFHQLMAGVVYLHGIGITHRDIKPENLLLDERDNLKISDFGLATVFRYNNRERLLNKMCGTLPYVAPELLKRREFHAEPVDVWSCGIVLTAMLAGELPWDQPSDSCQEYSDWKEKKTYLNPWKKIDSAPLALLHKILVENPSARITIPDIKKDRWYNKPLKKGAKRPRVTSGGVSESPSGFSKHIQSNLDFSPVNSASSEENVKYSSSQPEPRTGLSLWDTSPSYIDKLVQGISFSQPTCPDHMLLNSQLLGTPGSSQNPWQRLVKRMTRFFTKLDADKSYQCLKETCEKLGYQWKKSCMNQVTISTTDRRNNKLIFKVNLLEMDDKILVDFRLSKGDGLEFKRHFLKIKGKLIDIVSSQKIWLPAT
# Experimental: as §1
# PDK1 = PDK1 (Homo sapiens, UniProt O15530); test: kinase screen for inhibition or activation; assay type: biochemical; settings: 10 μM
# Experimental: as §1
# SGK1 = SGK1 (Homo sapiens, UniProt O00141); test: kinase screen for inhibition or activation; assay type: biochemical; settings: 10 μM
# Experimental: as §1
# MAPK14 (P38) = MAPK14 (P38) (Homo sapiens, UniProt Q16539); test: kinase screen for inhibition or activation; assay type: biochemical; settings: 10 μM
# Experimental: as §1
# FGFR3 = FGFR3 (Homo sapiens, UniProt P22607); test: kinase screen for inhibition or activation; assay type: biochemical; settings: 10 μM
# Experimental: as §1
# CaMK2a = CaMK2a (Homo sapiens, UniProt Q9UQM7); test: kinase screen for inhibition or activation; assay type: biochemical; settings: 10 μM
# Experimental: as §1
# JNK2 = JNK2 (Homo sapiens, UniProt P45984); test: kinase screen for inhibition or activation; assay type: biochemical; settings: 10 μM
# Experimental: as §1
# PKA = PKA (Homo sapiens, UniProt P17612); test: kinase screen for inhibition or activation; assay type: biochemical; settings: 10 μM
# Experimental: as §1
# IRAK4 = IRAK4 (Homo sapiens, UniProt Q9NWZ3); test: kinase screen for inhibition or activation; assay type: biochemical; settings: 10 μM
# Chain of IRAK4 (Q9NWZ3 whole entry, species assumed): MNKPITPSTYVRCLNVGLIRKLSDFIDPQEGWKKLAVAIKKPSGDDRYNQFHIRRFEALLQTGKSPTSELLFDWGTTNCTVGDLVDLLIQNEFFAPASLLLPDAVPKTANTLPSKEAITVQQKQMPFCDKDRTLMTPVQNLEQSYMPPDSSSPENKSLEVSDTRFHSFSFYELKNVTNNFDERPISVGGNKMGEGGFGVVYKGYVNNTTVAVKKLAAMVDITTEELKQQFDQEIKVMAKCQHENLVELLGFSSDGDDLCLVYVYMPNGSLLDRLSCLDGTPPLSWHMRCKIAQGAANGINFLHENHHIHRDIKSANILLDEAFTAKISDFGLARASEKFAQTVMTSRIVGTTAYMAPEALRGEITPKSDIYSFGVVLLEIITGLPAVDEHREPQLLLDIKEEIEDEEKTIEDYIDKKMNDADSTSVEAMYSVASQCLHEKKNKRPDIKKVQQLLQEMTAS
# Experimental: as §1
# MSK1 = MSK1 (Homo sapiens, UniProt O75582); test: kinase screen for inhibition or activation; assay type: biochemical; settings: 10 μM
# Chain of MSK1 (O75582 whole entry, species assumed): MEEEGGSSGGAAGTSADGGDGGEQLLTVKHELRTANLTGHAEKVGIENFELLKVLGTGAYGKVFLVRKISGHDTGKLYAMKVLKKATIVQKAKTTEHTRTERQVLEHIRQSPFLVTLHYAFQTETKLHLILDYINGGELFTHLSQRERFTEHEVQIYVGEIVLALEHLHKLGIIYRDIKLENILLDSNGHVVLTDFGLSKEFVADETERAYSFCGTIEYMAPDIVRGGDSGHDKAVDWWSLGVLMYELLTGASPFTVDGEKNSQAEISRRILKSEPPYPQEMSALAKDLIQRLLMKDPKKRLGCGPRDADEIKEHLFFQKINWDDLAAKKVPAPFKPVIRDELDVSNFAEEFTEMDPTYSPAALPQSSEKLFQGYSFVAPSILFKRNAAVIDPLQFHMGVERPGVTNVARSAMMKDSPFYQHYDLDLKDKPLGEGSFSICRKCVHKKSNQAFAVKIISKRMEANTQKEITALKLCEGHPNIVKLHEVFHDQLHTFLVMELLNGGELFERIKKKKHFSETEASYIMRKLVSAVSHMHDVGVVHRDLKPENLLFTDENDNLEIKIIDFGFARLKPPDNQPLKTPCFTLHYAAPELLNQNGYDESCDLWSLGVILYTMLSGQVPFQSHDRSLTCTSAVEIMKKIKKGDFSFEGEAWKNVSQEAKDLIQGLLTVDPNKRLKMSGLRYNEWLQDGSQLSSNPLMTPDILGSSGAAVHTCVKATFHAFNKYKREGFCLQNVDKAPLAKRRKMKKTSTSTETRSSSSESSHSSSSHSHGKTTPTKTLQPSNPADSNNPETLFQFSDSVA
# Experimental: as §1
# Lyn = Lyn (Homo sapiens, UniProt P07948); settings: 100 μM; ATP 0 to 800 μM
# Chain of Lyn (P07948 whole entry): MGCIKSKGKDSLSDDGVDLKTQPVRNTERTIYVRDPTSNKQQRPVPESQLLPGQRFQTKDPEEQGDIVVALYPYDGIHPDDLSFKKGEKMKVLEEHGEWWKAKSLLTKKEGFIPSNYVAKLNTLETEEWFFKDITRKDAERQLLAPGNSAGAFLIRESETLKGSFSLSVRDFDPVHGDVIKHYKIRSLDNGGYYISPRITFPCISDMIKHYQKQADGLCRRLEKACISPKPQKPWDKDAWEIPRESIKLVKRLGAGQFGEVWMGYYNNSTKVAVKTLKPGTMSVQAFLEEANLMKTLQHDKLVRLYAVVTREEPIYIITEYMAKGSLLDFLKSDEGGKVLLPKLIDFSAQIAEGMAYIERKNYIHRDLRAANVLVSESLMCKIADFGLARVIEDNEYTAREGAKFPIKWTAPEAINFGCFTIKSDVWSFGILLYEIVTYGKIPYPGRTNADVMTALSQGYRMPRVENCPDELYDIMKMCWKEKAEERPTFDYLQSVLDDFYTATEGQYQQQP
# Lyn (h) = Lyn (h) (Homo sapiens, UniProt P07948); test: Lyn kinase activation, pre-incubation then standard radiometric assay; assay type: biochemical
# Chain of Lyn (h) (P07948 whole entry): as above
# [1] = molecular target: unphosphorylated Lyn kinase (Homo sapiens, UniProt P07948); test: Z'-LYTE Kinase Assay Kit-Tyr Peptide-2 Lyn kinase activation assay; assay type: biochemical; settings: for Fold-Activation: 30 μM vs DMSO; for % Phosphorylation of Substrate: 30 μM
# Chain of unphosphorylated Lyn kinase (P07948 whole entry): as above
# Experimental: The following example was conducted to further optimize assay conditions for detecting Compound 102-mediated activation of Lyn kinase. The assays describe below utilize the Z′-LYTE™ Kinase Assay Kit-Tyr Peptide (Invitrogen, Carlsbad, Calif.). These assay systems were originally developed to detect inhibitors of various tyrosine kinases.
# The assay system used was a non-radiometric assay utilizing the Z′-LYTE™ Kinase Assay Kit-Tyr Peptide-2 (Invitrogen, Carlsbad, Calif.) for detecting activity of Lyn kinase. Buffer components were altered as described below. The lyn kinase protein used in these studies was the unphosphorylated form of the protein. Concentrations of this unphosphorylated lyn protein ranged from 25 ng/mL to 300 ng/mL. The preincubation step was lengthened from 30 minutes to 60 minutes.
# The Invitrogen Reaction Buffer was used for all studies. The following additions were made to this Reaction Buffer and tested separately and compared to Reaction Buffer alone: Modification 1: Reaction Buffer with 0.1% BSA; Modification 2: Reaction Buffer with 1 mM dithiothreitol; Modification 3: Reaction Buffer with 0.01% BSA, 1 mM dithiothreitol; and Modification 4: Reaction Buffer with 0.1% β-mercaptoethanol.
# [2] = Modification 1: Reaction Buffer with 0.1% BSA
# [3] = Modification 2: Reaction Buffer with 1 mM dithiothreitol
# [4] = Modification 3: Reaction Buffer with 0.01% BSA, 1 mM dithiothreitol
# [5] = Modification 4: Reaction Buffer with 0.1% β-mercaptoethanol
# Chain of IKKb (O14920 whole entry, species assumed): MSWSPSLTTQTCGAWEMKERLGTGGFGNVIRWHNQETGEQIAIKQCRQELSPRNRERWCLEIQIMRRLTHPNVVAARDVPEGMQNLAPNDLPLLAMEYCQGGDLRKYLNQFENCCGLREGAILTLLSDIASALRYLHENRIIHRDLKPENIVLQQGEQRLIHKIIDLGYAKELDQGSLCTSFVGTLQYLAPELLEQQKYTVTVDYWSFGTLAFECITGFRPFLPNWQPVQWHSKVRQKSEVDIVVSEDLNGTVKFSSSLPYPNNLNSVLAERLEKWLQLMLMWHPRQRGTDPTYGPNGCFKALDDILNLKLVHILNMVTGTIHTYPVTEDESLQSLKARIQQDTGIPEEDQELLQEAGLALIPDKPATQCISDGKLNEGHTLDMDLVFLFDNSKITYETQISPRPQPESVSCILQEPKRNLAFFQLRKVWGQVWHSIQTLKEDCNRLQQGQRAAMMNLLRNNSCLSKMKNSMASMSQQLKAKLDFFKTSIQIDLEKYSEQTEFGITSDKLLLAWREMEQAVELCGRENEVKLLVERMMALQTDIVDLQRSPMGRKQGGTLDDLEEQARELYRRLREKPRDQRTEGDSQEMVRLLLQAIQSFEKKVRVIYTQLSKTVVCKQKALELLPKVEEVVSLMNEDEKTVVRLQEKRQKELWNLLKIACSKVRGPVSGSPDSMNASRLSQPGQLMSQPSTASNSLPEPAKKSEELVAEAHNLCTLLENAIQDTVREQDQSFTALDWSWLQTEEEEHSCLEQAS
compound,measurement,setting,value
Cc1cccc(Oc2cnc(=O)[nH]c2)c1 [Compound 102],COMPOUND 102 ACTIVITY (% KINASE ACTIVITY),IKKb,−6.26%
same,COMPOUND 102 ACTIVITY (% KINASE ACTIVITY),Akt2,−6.83%
same,p70S6K inhibited by,p70S6K,24.3%
same,COMPOUND 102 ACTIVITY (% KINASE ACTIVITY),PKCb2,−1.12%
same,COMPOUND 102 ACTIVITY (% KINASE ACTIVITY),Pim2,−8.06%
same,COMPOUND 102 ACTIVITY (% KINASE ACTIVITY),Src,4.56%
same,COMPOUND 102 ACTIVITY (% KINASE ACTIVITY),"IGF1R; IGF1R, 10 μM",−20.18%
same,inhibition at 10 µM,"IGF1R; inhibition, read-out: insulin-like growth factor receptor activity inhibited by",20.1%
same,COMPOUND 102 ACTIVITY (% KINASE ACTIVITY),CK1d,−1.5%
same,COMPOUND 102 ACTIVITY (% KINASE ACTIVITY),CHK1,0.87%
same,COMPOUND 102 ACTIVITY (% KINASE ACTIVITY),PDK1,−2.63%
same,COMPOUND 102 ACTIVITY (% KINASE ACTIVITY),SGK1,−19.24%
same,COMPOUND 102 ACTIVITY (% KINASE ACTIVITY),MAPK14 (P38),1.74%
same,COMPOUND 102 ACTIVITY (% KINASE ACTIVITY),FGFR3,−1.58%
same,COMPOUND 102 ACTIVITY (% KINASE ACTIVITY),CaMK2a,0.08%
same,COMPOUND 102 ACTIVITY (% KINASE ACTIVITY),JNK2,−4.8%
same,COMPOUND 102 ACTIVITY (% KINASE ACTIVITY),PKA,−0.3%
same,COMPOUND 102 ACTIVITY (% KINASE ACTIVITY),IRAK4,2.25%
same,COMPOUND 102 ACTIVITY (% KINASE ACTIVITY),MSK1,1.55%
same,effect on the Km for ATP,Lyn,did not alter the Km for ATP
same,increase of the Vmax of Lyn kinase,Lyn,3 fold
same,activity of Lyn kinase (h) relative to the DMSO control,"Lyn (h); 100 μM, 30 minutes pre-incubation on ice, 10 μM ATP, 40 minutes at room temperature",more than 3 fold
same,concentration dependence of Lyn kinase (h) activity,"Lyn (h); 1, 3, 10, 30 and 100 μM",increased with Compound 102 concentration in a dose-dependent manner
same,EC50,"Lyn (h); 30 minutes pre-incubation on ice, 10 μM ATP",650 nM
same,Fold-Activation,[1]; [2],1.1 fold
same,Fold-Activation,[1]; [3],1.2 fold
same,Fold-Activation,[1]; [4],1.6 fold
same,Fold-Activation,[1]; [5],2.4 fold
same,Fold-Activation,[1]; Reaction Buffer,1.6 fold
same,% Phosphorylation of Substrate,[1]; [2],33.6%
same,% Phosphorylation of Substrate,[1]; [3],80.9%
same,% Phosphorylation of Substrate,[1]; [4],83.4%
same,% Phosphorylation of Substrate,[1]; [5],33.3%
same,% Phosphorylation of Substrate,[1]; Reaction Buffer,16.2%
